Reference: patent US9315438B2, “Optically pure benzyl-4-chlorophenyl-C-glucoside derivative” (XUANZHU PHARMA CO., LTD., priority 2014, dated 2016)

Assays:
human SGLT-1 = human SGLT-1 (Homo sapiens (Human), UniProt P13866); assay: In-vitro [14C]-AMG uptake inhibition assay in CHO cells stably expressing human SGLT-1; type: cell-based; conditions: human SGLT-1 in CHO cells
Procedure: In the in-vitro assay for the pharmacological activities of the present compounds, the human SGLT-2 and SGLT-1 sequences were transfected to Chinese hamster ovary cells to express stably. By measuring inhibition of the sodium dependent adsorption of [^14C]-labeled […]-D-glucopyranoside (AMG) into the cells, the half-inhibition concentration IC50 was determined. Buffer A (KRH—Na^+): 120 mM NaCl, 4.7 mM KCl, 1.2 mM MgCl2, 2.2 mM CaCl2, 10 mM HEPES (PH 7.4 with 1 mM Tris). Buffer A− (KRH—NMG): 120 mM NMG, 4.7 mM KCl, 1.2 mM MgCl2, 2.2 mM CaCl2, 10 mM HEPES (PH 7.4 with 1 mM Tris). Buffer D: 120 mM NaCl, 4.7 mM KCl, 1.2 mM MgCl2, 2.2 mM CaCl2, 10 mM HEPES, 0.5 mM phlorizin (PH 7.4 with 1 mM Tris). Assay method: Human SGLT-2 and SGLT-1 sequences were stably expressed in the CHO cells. The cell culture was conducted in a 96-well plate for 12 hr. The plate was washed with KRH—Na+(Buffer A) or KRH-NMG (Buffer A−) buffering solution for three times, 2004/well. Then the plate was added with a buffering solution containing Buffer A or Buffer A− plus [^14C]-AMG (10 μCi/mL), 100 μL/well. The cell culture was conducted at 37° C. for 1 hr. Then, 100 μL of an ice pre-cooled buffering solution (Buffer D) was added to terminate the assay. The plate was washed for five times. Then an ice pre-cooled lytic buffering solution (100 mM NaOH solution) was added, 20 μL/well, and the centrifugation at 600 rpm was conducted for 5 mins. Then Microscint 40 solution was added, 80 μl/well, and the centrifugation at 600 rpm was conducted for 5 mins. Finally, the radioactivity of [^14C]-AMG was detected with MicroBeta Trilux (purchased from PerkinElmer Co. Ltd.) according to the scintillation counting method, and the half-inhibition concentration IC50 was calculated.

human SGLT-2 = human SGLT-2 (Homo sapiens (Human), UniProt P31639); assay: In-vitro [14C]-AMG uptake inhibition assay in CHO cells stably expressing human SGLT-2; type: cell-based; conditions: for Selectivity: SGLT-1 IC50 / SGLT-2 IC50
Sequence of human SGLT-2 (P31639 whole entry): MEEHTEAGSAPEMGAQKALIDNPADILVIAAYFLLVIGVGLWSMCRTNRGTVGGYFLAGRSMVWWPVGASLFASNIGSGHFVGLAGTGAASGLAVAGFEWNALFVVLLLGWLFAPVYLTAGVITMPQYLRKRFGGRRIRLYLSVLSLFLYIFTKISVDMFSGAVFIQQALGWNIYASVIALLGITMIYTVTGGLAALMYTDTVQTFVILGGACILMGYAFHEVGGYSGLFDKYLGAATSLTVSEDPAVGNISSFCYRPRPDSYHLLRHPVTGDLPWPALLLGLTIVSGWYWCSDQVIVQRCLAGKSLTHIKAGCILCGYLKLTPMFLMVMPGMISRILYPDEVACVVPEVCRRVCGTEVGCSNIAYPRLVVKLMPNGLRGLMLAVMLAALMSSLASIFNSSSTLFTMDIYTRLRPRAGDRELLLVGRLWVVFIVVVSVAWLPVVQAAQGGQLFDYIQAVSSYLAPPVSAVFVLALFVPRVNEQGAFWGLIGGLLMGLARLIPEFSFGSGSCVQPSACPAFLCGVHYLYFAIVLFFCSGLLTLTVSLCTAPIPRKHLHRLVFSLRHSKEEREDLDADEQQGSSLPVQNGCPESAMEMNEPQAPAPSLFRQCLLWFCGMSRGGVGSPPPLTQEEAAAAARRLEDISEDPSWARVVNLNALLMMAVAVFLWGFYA
Procedure: In the in-vitro assay for the pharmacological activities of the present compounds, the human SGLT-2 and SGLT-1 sequences were transfected to Chinese hamster ovary cells to express stably. By measuring inhibition of the sodium dependent adsorption of [^14C]-labeled […]-D-glucopyranoside (AMG) into the cells, the half-inhibition concentration IC50 was determined.
Buffer A (KRH—Na^+): 120 mM NaCl, 4.7 mM KCl, 1.2 mM MgCl2, 2.2 mM CaCl2, 10 mM HEPES (PH 7.4 with 1 mM Tris).
Buffer A− (KRH—NMG): 120 mM NMG, 4.7 mM KCl, 1.2 mM MgCl2, 2.2 mM CaCl2, 10 mM HEPES (PH 7.4 with 1 mM Tris).
Buffer D: 120 mM NaCl, 4.7 mM KCl, 1.2 mM MgCl2, 2.2 mM CaCl2, 10 mM HEPES, 0.5 mM phlorizin (PH 7.4 with 1 mM Tris).
Assay method: Human SGLT-2 and SGLT-1 sequences were stably expressed in the CHO cells. The cell culture was conducted in a 96-well plate for 12 hr. The plate was washed with KRH—Na+(Buffer A) or KRH-NMG (Buffer A−) buffering solution for three times, 2004/well. Then the plate was added with a buffering solution containing Buffer A or Buffer A− plus [^14C]-AMG (10 μCi/mL), 100 μL/well. The cell culture was conducted at 37° C. for 1 hr. Then, 100 μL of an ice pre-cooled buffering solution (Buffer D) was added to terminate the assay. The plate was washed for five times. Then an ice pre-cooled lytic buffering solution (100 mM NaOH solution) was added, 20 μL/well, and the centrifugation at 600 rpm was conducted for 5 mins. Then Microscint 40 solution was added, 80 μl/well, and the centrifugation at 600 rpm was conducted for 5 mins. Finally, the radioactivity of [^14C]-AMG was detected with MicroBeta Trilux (purchased from PerkinElmer Co. Ltd.) according to the scintillation counting method, and the half-inhibition concentration IC50 was calculated.

[1] = Rat in-vivo pharmacokinetic assay (PO); conditions: male SD rats, PO 10 mg/kg, plasma
Procedure: Assay animals: 6-8 weeks aged male SD rats (purchased from Vital River Laboratories), 3 rats per compound, weighing 200-240 g.
Solvent: 0.5% MC (methyl cellulose) solution+0.1% SDS (sodium dodecyl sulfate).
Intragastric administration (PO): See Table 2
Blood collection: each of 200 μL whole blood were collected at 0.17 hr, 0.5 hr, 1 hr, 2 hr, 4 hr, 6 hr, 8 hr, 24 hr, 30 hr, 48 hr, 54 hr and 72 hr. The collected blood samples were centrifuged at 4° C. at 8000 rpm in a low temperature high-speed centrifuge (5415R, Eppendorf) for 6 mins to separate the blood plasma. The separated plasma was preserved at −80° C. in a refrigerator.
20 μL of the plasma was carefully taken out, to which was added 600 µL of an internal standard MTBE (methyl tert-butyl ether) solution (containing internal standard dapagliflozin 25 ng/ml). The plasma was subjected to a vortex at 1500 rpm for 10 mins, and then centrifuged at 12000 rpm for 5 mins. 4004 of the supernatant was taken and blow-dried with nitrogen gas. The dried substance was redissolved with 2004 of a redissolving solution (acetonitrile:water=7:3). The solution was subjected to a vortex for 10 mins, and analyzed with LC-MS/MS (API4000, Applied Biosystems).

Sequence of human SGLT-1 (P13866 whole entry): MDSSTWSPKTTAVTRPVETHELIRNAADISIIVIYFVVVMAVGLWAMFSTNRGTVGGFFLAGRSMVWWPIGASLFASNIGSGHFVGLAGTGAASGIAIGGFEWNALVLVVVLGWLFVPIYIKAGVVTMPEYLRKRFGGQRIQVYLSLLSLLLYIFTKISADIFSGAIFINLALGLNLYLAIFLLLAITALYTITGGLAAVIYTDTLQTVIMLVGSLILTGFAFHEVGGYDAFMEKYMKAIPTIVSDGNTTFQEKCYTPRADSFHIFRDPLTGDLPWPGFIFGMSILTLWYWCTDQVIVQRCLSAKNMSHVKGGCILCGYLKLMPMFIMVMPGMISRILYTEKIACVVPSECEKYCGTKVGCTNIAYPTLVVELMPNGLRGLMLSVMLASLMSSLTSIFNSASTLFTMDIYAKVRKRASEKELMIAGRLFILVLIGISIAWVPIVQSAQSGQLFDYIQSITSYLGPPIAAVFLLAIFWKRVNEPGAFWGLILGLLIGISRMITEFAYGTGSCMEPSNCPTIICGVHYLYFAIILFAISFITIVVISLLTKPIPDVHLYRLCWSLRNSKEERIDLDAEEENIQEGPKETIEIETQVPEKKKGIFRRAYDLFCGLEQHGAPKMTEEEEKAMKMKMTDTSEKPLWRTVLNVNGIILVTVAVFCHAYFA

| Structure (SMILES) | IC50 (human SGLT-1) [µM] | IC50 (human SGLT-2; human SGLT-2 in CHO cells, [14C]-AMG uptake) [µM] | AUC(0-inf) [1] [ng·h/mL] | AUC(0-t) [1] [ng·h/mL] | Cmax [1] [ng/mL] | Tmax [1] [h] | half-life [1] [h] | Selectivity (human SGLT-2) |
| --- | --- | --- | --- | --- | --- | --- | --- | --- |
| OC[C@H]1O[C@@H](c2ccc(Cl)c(Cc3ccc(O[C@H]4C[C@@H]5C[C@@H]5C4)cc3)c2)[C@H](O)[C@@H](O)[C@@H]1O [Compound represented by formula (II), (2S,3R,4R,5S,6R)-2-(3-(4-(((1R,3s,5S)-bicyclo[3.1.0]hexan-3-yl)oxy)benzyl)-4-chlorophenyl)-6-(hydroxymethyl)tetrahydro-2H-pyran-3,4,5-triol] | 17.2 | 0.0025 | 92100 | 92100 | 6380 | 1 | 8.98 |  |
| OC[C@H]1O[C@@H](c2ccc(Cl)c(Cc3ccc(O[C@@H]4C[C@@H]5C[C@@H]5C4)cc3)c2)[C@H](O)[C@@H](O)[C@@H]1O [Compound represented by formula (III), (2S,3R,4R,5S,6R)-2-(3-(4-(((1R,3r,5S)-bicyclo[3.1.0]hexan-3-yl)oxy)benzyl)-4-chlorophenyl)-6-(hydroxymethyl)tetrahydro-2H-pyran-3,4,5-triol] | 3.08 |  |  |  |  |  |  | 392.77 |
| OC[C@H]1O[C@H](c2ccc(Cl)c(Cc3ccc(O[C@H]4C[C@@H]5C[C@@H]5C4)cc3)c2)[C@H](O)[C@@H](O)[C@@H]1O [Compound represented by formula (IV), (2R,3R,4R,5S,6R)-2-(3-(4-(((1R,3s,5S)-bicyclo[3.1.0]hexan-3-yl)oxy)benzyl)-4-chlorophenyl)-6-(hydroxymethyl)tetrahydro-2H-pyran-3,4,5-triol] | 111 |  |  |  |  |  |  | 100.34 |
| OC[C@H]1O[C@H](c2ccc(Cl)c(Cc3ccc(O[C@@H]4C[C@@H]5C[C@@H]5C4)cc3)c2)[C@H](O)[C@@H](O)[C@@H]1O [Compound represented by formula (V), (2R,3R,4R,5S,6R)-2-(3-(4-(((1R,3r,5S)-bicyclo[3.1.0]hexan-3-yl)oxy)benzyl)-4-chlorophenyl)-6-(hydroxymethyl)tetrahydro-2H-pyran-3,4,5-triol] | 75.5 |  |  |  |  |  |  | 267.77 |
